Read-outs that look alike come from different tables or passages of the source.

Experiment [1] has as its target Tet(X4) (Escherichia coli, UniProt A0A3T0V9Y5). In words: FP competitive displacement of probe 6. The class given is binding. As to conditions: 25 nM 6, 40 nM Tet(X4), 5 mM MgCl2, 1 μM FAD, 100 mM Tris pH 7.0, 0.01% Triton X-100. The method, then:
A 2× solution containing 80 nM Tet(X4), 2 μM FAD and 10 mM MgCl2 in the assay buffer was dispensed into the first 22 columns of a 384-well black, non-binding microtiter plate (Greiner Bio-One), 12.5 μL per well, using a microplate reagent dispenser. A solution of 2 μM FAD and 10 mM MgCl2 in the assay buffer was dispensed into the remaining columns to serve as a no enzyme control. A 3-fold, 10-point dilution series of substrates and inhibitors was made in DMSO in a V-bottom 96-well plate (Greiner Bio-One) with a highest concentration of 5 mM or 0.5 mM. Into one column was added DMSO with no inhibitor or substrate, to serve as a positive control. Tigecycline was included as a reference on every plate to ensure reproducibility. 0.5 μL of each dilution was transferred in quadruplicate to the 384-well plate containing enzyme solution using a CyBi-Well liquid-handling robot (CyBio). A solution of 50 nM 6 in the assay buffer was then dispensed, with 12.5 μL per well. The plate was briefly centrifuged (1000 rpm), then incubated at ambient temperature for 30 min prior to measuring the FP. Data points were normalised between the positive and negative controls. Normalised % response was plotted as a function of log10([Inhibitor]), and the IC50^app was determined by fitting the data to the equation: Y = Bottom + (top-bottom)/(1 + 10^Log(IC50) − X) × HillSlope in GraphPad Prism 9.4.1, where Y = % response and X = log10([Inhibitor]). Wells with unusual fluorescence intensities were manually identified and removed from the analysis. […]

Experiment [2] has as its system E. coli TOP10 containing plasmid pBAD-TOPO-Tet(X4). In words: Broth microdilution MIC and checkerboard assay. It is filed as cell-based, Escherichia coli. As to conditions: alone; without L-arabinose induction. From the text: Tet(X4) was sub-cloned from the Tet(X4) pET28b-(+) expression vector via TOPO cloning. The insert was amplified using the taq polymerase with the forward primer 5′- […]-3′ and the reverse primer 5′- […]-3’. Following PCR purification (Thermo Fisher Scientific), the A-tailed PCR product was ligated into the pBAD-TOPO vector using a TOPO cloning kit (Invitrogen) according to the manufacturer's protocol. Following amplification in E. coli NEB5α cells (NEBiolabs), the fidelity of the insert was confirmed by Sanger sequencing (Eurofins). For microbiological experiments, E. coli TOP10 cells were used as the recipient strain. Cells were plated on Mueller-Hinton agar (MHA) plates containing ampicillin at 100 μg mL^−1. The introduction of pBAD-TOPO-Tet(X4) was confirmed by colony PCR. Strains were stored in a freezer at −80 °C in cryopreservation beads.
(§1) MIC tests and checkerboard assays were performed in U-bottom, 96-well microtiter plates using a modified broth microdilution protocol following CLSI guidelines. Cation-adjusted Mueller-Hinton Broth (CAMHB) was prepared fresh on the day of testing.[74] […] Bacterial colonies were selected from an overnight culture on MHA plates (supplemented with 0.2%w/vL-arabinose for E. coli TOP10 containing pBAD-TOPO-Tet(X4)) and were suspended in 0.9% saline solution to achieve a 0.5 McFarland standard. A 100 μL aliquot of this suspension was then diluted into 9.9 mL of CAMHB to yield approximately 1.5 × 10^6 cfu mL^−1. 50 μL of the suspension was then added to each well of a microtiter plates. Plates were incubated at 37 °C for 18 h. At least 2 replicates were conducted for each combination. E. coli TOP10 + pBAD-TOPO-Tet(X4) cells were grown in the absence and presence of 0.2%w/vL-arabinose. Analysis of the MIC and checkerboard results were carried out by visual inspection of growth, with and without resazurin dye, an oxidation–reduction indicator.[75] As a measure of synergy, fractional inhibitory concentration index (FICI) was calculated as FICA + FICB, where FICA and FICB are the MICcombination/MICalone for each agent, respectively.[76] Results were interpreted as follows: synergistic (<0.5), indifferent (1.0–4.0) or antagonistic (>4.0).[64] In cases where the MIC exceeded or was below the measured range, the borderline value was taken to calculate the FIC index.
For orientation: Broth dilution looks for growth in wells or tubes with falling amounts of substance.

Experiment [3] concerns Acinetobacter spp. NT3-1 – tet(X3). In words: microbe, parasite or virus in culture. It is filed as cell-based. The method, then: (§2) MIC tests and checkerboard assays were performed in U-bottom, 96-well microtiter plates using a modified broth microdilution protocol following CLSI guidelines. Cation-adjusted Mueller-Hinton Broth (CAMHB) was prepared fresh on the day of testing.[74] In brief, assays were set up in a total volume of 100 μL per well and titrations comprised seven 2-fold dilutions of inhibitors and ten 2-fold dilutions of tigecycline in CAMHB. Bacterial colonies were selected from an overnight culture on MHA plates (supplemented with 0.2%w/vL-arabinose for E. coli TOP10 containing pBAD-TOPO-Tet(X4)) and were suspended in 0.9% saline solution to achieve a 0.5 McFarland standard. A 100 μL aliquot of this suspension was then diluted into 9.9 mL of CAMHB to yield approximately 1.5 × 10^6 cfu mL^−1. 50 μL of the suspension was then added to each well of a microtiter plates. Plates were incubated at 37 °C for 18 h. At least 2 replicates were conducted for each combination. E. coli TOP10 + pBAD-TOPO-Tet(X4) cells were grown in the absence and presence of 0.2%w/vL-arabinose. Analysis of the MIC and checkerboard results were carried out by visual inspection of growth, with and without resazurin dye, an oxidation–reduction indicator.[75] As a measure of synergy, fractional inhibitory concentration index (FICI) was calculated as FICA + FICB, where FICA and FICB are the MICcombination/MICalone for each agent, respectively.[76] Results were interpreted as follows: synergistic (<0.5), indifferent (1.0–4.0) or antagonistic (>4.0).[64] In cases where the MIC exceeded or was below the measured range, the borderline value was taken to calculate the FIC index.

The test system of experiment [4] is Salmonella enterica T-2a – tet(X4). As to the kind of experiment: microbe, parasite or virus in culture. The class given is cell-based. The method, then: as §2
The test system of experiment [5] is Escherichia coli T-24a – tet(X4). As to the kind of experiment: microbe, parasite or virus in culture. The class given is cell-based. How it is done:
as §1

Experiment [6] has as its system Proteus penneri NT6-2 – tet(X6). As to the kind of experiment: microbe, parasite or virus in culture. It is filed as cell-based. The method, then:
as §1

Experiment [7] relates to Acinetobacter baumannii NT5-1 – tet(X5). In words: microbe, parasite or virus in culture. The class given is cell-based. How it is done: as §1
Where [8] appears, read: IC50app, Tet(X4) (Polarization).
The mark [9] stands for this setting: inhibitor in combination with tigecycline, lowest FICI.
Where [10] appears, read: tigecycline in combination with the inhibitor, lowest FICI.

Compound `CN(C)[C@@H]1C(O)=C(C(N)=O)C(=O)[C@@]2(O)C(O)=C3C(=O)c4c(O)ccc(Cl)c4[C@@](C)(O)[C@H]3C[C@@H]12` [Chlortetracycline] gave an IC50 in experiment [1] (IC50app, FP assay) of 39 ± 9.6 nM.
As for `Nc1nc2c(c(=O)[nH]1)N(C=O)C(CNc1ccc(C(=O)N[C@@H](CCC(=O)O)C(=O)O)cc1)CN2` (stereo partly shown) [Calcium folinate], the IC50 in experiment [1] (setting [8]) was more than 100000 nM.
Same read-out and setting: as for `COc1ccnc(C[S+]([O-])c2nc3cc(-n4cccc4)ccc3[nH]2)c1C` (stereo not shown) [Ilaprazole], the figure is more than 100000 nM.
Consider `CN(C)[C@@H]1C(O)=C(C(N)=O)C(=O)[C@@]2(O)C(O)=C3C(=O)c4c(O)cccc4[C@@](C)(O)[C@H]3[C@H](O)[C@@H]12` [Oxytetracycline], for which the IC50 in experiment [1] (IC50app, FP assay) turned out to be 4430 ± 260 nM.
Still for that read-out and setting: next, `CN(C)c1ccc(O)c2c1C[C@H]1C[C@H]3[C@H](N(C)C)C(O)=C(C(N)=O)C(=O)[C@@]3(O)C(O)=C1C2=O` [Minocycline]: 51.5 ± 3.6 nM.
The same measure, in the same setting: next, `CN(C)[C@@H]1C(O)=C(C(N)=O)C(=O)[C@@]2(O)C(O)=C3C(=O)c4c(O)cccc4C[C@H]3C[C@@H]12` [Sancycline]: 47 ± 7.1 nM; `CN(C)[C@@H]1C(O)=C(C(N)=O)C(=O)[C@@]2(O)C(O)=C3C(=O)c4c(O)ccc(Cl)c4[C@@H](O)[C@H]3C[C@@H]12` [Demeclocycline]: 29 ± 4.6 nM.
Regarding `NCCc1ccc(O)c(O)c1` [Dopamine], in experiment [1] (setting [8]), the IC50 is more than 100000 nM.
Turning to `C=C1c2cccc(O)c2C(=O)C2=C(O)[C@]3(O)C(=O)C(C(N)=O)=C(O)[C@@H](N(C)C)[C@@H]3[C@@H](O)[C@H]12` [Methacycline], the IC50 in experiment [1] (IC50app, FP assay) worked out at 311 ± 36 nM.
Still for that read-out and setting: next, `CN(C)[C@@H]1C(O)=C(C(N)=O)C(=O)[C@@]2(O)C(O)=C3C(=O)c4c(O)c(NC(=O)CN5CCCC5)cc(F)c4C[C@H]3C[C@@H]12` [Eravacycline]: 13.7 ± 1.6 nM.
`CCN(CC)C(=S)SSC(=S)N(CC)CC` [Disulfiram] registered an IC50 in experiment [1] (setting [8]) of more than 100000 nM.
Compound `CN(C)[C@@H]1C(O)=C(C(N)=O)C(=O)[C@@]2(O)C(O)=C3C(=O)c4c(O)cccc4[C@@](C)(O)[C@H]3C[C@@H]12` [Tetracycline] came in with an IC50 in experiment [1] (IC50app, FP assay) of 69.6 ± 8.8 nM. In addition, the “Antibiotic MIC” value in experiment [2] turned out to be 4 µg/mL.
With `CN(C)c1cc(CNCC(C)(C)C)c(O)c2c1C[C@H]1C[C@H]3[C@H](N(C)C)C(O)=C(C(N)=O)C(=O)[C@@]3(O)C(O)=C1C2=O` [Omadacycline], the IC50 in experiment [1] (IC50app, FP assay) stood at 24.3 ± 4 nM.
For `CCC1(c2cnc[nH]2)Cc2ccccc2C1` [Atipamezole], in experiment [1] (setting [8]), the IC50 was more than 100000 nM.
Consider `NCCS` [Cysteamine], for which the IC50 in experiment [1] (read-out: IC50app, Tet(X4) (Polarization)) is more than 100000 nM.
Consider `Nc1ccc2cc3ccc(N)cc3nc2c1` [Proflavine], for which the IC50 in experiment [1] (setting [8]) was more than 100000 nM.
`NC(=O)c1ncn([C@@H]2O[C@H](CO)[C@@H](O)[C@H]2O)c1O` [Mizoribine]: the IC50 in experiment [1] (setting [8]) was more than 100000 nM.
For the compound `CON(C)Cc1ccc(O)c2c1C[C@H]1C[C@H]3[C@H](N(C)C)C(O)=C(C(N)=O)C(=O)[C@@]3(O)C(O)=C1C2=O` [Sarecycline], the IC50 in experiment [1] (IC50app, FP assay) came to 31.5 ± 10 nM.
Take `C[C@]12CCC(=O)C=C1[C@@H]1C[C@@H]1[C@H]1[C@@H]3[C@@H]4C[C@@H]4[C@@]4(CCC(=O)O4)[C@@]3(C)CC[C@@H]12` [Drosperinone]: the “Tet(X) inhibitor MIC” value in experiment [3] (alone, Acinetobacter spp. NT3-1) was 128 µg/mL; in experiment [5] (alone, E. coli T-24a), 256 µg/mL; in experiment [6] (alone, P. penneri NT6-2), more than 128 µg/mL; in experiment [7] (alone, A. baumannii NT5-1) it was more than 128 µg/mL. The “Combination (Antibiotic/Inhibitor) MICs: inhibitor” value in experiment [3] (setting [9]), in experiment [6] (setting [9]) and in experiment [7] (setting [9]) was 128 µg/mL each time. Moreover, the “Combination (Antibiotic/Inhibitor) MICs: antibiotic” value in experiment [3] (setting [10]) turned out to be 4 µg/mL; in experiment [4] (setting [10]) it was 16 µg/mL; in experiment [5] (setting [10]), 8 µg/mL; in experiment [6] (setting [10]), 8 µg/mL; in experiment [7] (setting [10]), 4 µg/mL. For the same compound, the FICI in experiment [3] (with tigecycline) is on record as 2; in experiment [4] (with tigecycline) it was 1.5; in experiment [5] (with tigecycline), 1; in experiment [6] (with tigecycline), 2; in experiment [7] (with tigecycline) it was 1.5. The Outcome entry in experiment [3] (with tigecycline), in experiment [4] (with tigecycline), in experiment [5] (with tigecycline), in experiment [6] (with tigecycline) and in experiment [7] (with tigecycline) was “indifferent (indifferent (0.5-4.0))” in each case.
In the case of `C[C@@H](Oc1cc(-c2cnn(C3CCNCC3)c2)cnc1N)c1c(Cl)ccc(F)c1Cl` [Crizotinib], in experiment [1] (setting [8]), the IC50 is more than 100000 nM.
Same read-out and setting: as for `N=C(N)c1ccc(/N=N/Nc2ccc(C(=N)N)cc2)cc1` [Diminazene], the figure is more than 100000 nM.
